In ChEMBL document CHEMBL1649203, “Pharmacokinetics and safety of famciclovir in children with herpes simplex or varicella-zoster virus infection” (Antimicrob Agents Chemother, 2009):

How the values were obtained:
Homo sapiens [1] = test: Toxicity in HSV-infected 6 to <=12 years aged pediatric patient assessed as incidence of abdominal pain at 23.5 mg/kg, po bid; assay type: organism-based, Abdomen; set-up: dose 23.5 mg/kg, route oral; details: in vivo
Homo sapiens [2] = test: Toxicity in orally dosed HSV-infected patient assessed as incidence of abdominal pain administered as bid; assay type: organism-based, Abdomen; details: in vivo, po
Homo sapiens [3] = test: Toxicity in HSV-infected 1 to <2 years aged pediatric patient assessed as pyrexia at 30.9 mg/kg, po administered as bid; assay type: organism-based; set-up: dose 30.9 mg/kg, route oral; details: in vivo
Homo sapiens [4] = test: Toxicity in HSV-infected 2 to <6 years aged pediatric patient assessed as pyrexia at 27.6 mg/kg, po bid; assay type: organism-based; set-up: dose 27.6 mg/kg, route oral; details: in vivo
Homo sapiens [5] = test: Toxicity in HSV-infected 6 to <=12 years aged pediatric patient assessed as pyrexia at 23.5 mg/kg, po bid; assay type: organism-based; set-up: dose 23.5 mg/kg, route oral; details: in vivo
Homo sapiens [6] = test: Toxicity in orally dosed HSV-infected patient assessed as pyrexia administered as bid; assay type: organism-based; details: in vivo, po
Homo sapiens [7] = test: Toxicity in VZV-infected 1 to <2 years aged pediatric patient assessed as at least one adverse event at 40.8 mg/kg, po tid; assay type: organism-based; set-up: dose 40.8 mg/kg, route oral; details: in vivo
Homo sapiens [8] = test: Toxicity in VZV-infected 2 to <6 years aged pediatric patient assessed as at least one adverse event at 40.6 mg/kg, po tid; assay type: organism-based; set-up: dose 40.6 mg/kg, route oral; details: in vivo
Homo sapiens [9] = test: Toxicity in VZV-infected 6 to <=12 years aged pediatric patient assessed as at least one adverse event at 35.5 mg/kg, po tid; assay type: organism-based; set-up: dose 35.5 mg/kg, route oral; details: in vivo
Homo sapiens [10] = test: Toxicity in orally dosed VZV-infected patient assessed as at least one adverse event administered as tid; assay type: organism-based; details: in vivo, po
Homo sapiens [11] = test: Toxicity in VZV-infected 1 to <2 years aged pediatric patient assessed as incidence of diarrhea at 40.8 mg/kg, po tid; assay type: organism-based; set-up: dose 40.8 mg/kg, route oral; details: in vivo
Homo sapiens [12] = test: Toxicity in VZV-infected 2 to <6 years aged pediatric patient assessed as incidence of diarrhea at 40.6 mg/kg, po tid; assay type: organism-based; set-up: dose 40.6 mg/kg, route oral; details: in vivo
Homo sapiens [13] = test: Toxicity in VZV-infected 6 to <=12 years aged pediatric patient assessed as incidence of diarrhea at 35.5 mg/kg, po tid; assay type: organism-based; set-up: dose 35.5 mg/kg, route oral; details: in vivo
Homo sapiens [14] = test: Toxicity in orally dosed VZV-infected patient assessed as incidence of diarrhea administered as tid; assay type: organism-based; details: in vivo, po
Homo sapiens [15] = test: Toxicity in VZV-infected 1 to <2 years aged pediatric patient assessed as incidence of vomiting at 40.8 mg/kg, po tid; assay type: organism-based; set-up: dose 40.8 mg/kg, route oral; details: in vivo
Homo sapiens [16] = test: Toxicity in VZV-infected 2 to <6 years aged pediatric patient assessed as incidence of vomiting at 40.6 mg/kg, po tid; assay type: organism-based; set-up: dose 40.6 mg/kg, route oral; details: in vivo
Homo sapiens [17] = test: Toxicity in VZV-infected 6 to <=12 years aged pediatric patient assessed as incidence of vomiting at 35.5 mg/kg, po tid; assay type: organism-based; set-up: dose 35.5 mg/kg, route oral; details: in vivo
Homo sapiens [18] = test: Toxicity in orally dosed VZV-infected patient assessed as incidence of vomiting administered as tid; assay type: organism-based; details: in vivo, po
Homo sapiens [19] = test: Toxicity in VZV-infected 1 to <2 years aged pediatric patient assessed as pyrexia at 40.8 mg/kg, po tid; assay type: organism-based; set-up: dose 40.8 mg/kg, route oral; details: in vivo
Homo sapiens [20] = test: Toxicity in VZV-infected 2 to <6 years aged pediatric patient assessed as pyrexia at 40.6 mg/kg, po tid; assay type: organism-based; set-up: dose 40.6 mg/kg, route oral; details: in vivo
Homo sapiens [21] = test: Toxicity in VZV-infected 6 to <=12 years aged pediatric patient assessed as pyrexia at 35.5 mg/kg, po tid; assay type: organism-based; set-up: dose 35.5 mg/kg, route oral; details: in vivo
Homo sapiens [22] = test: Toxicity in orally dosed VZV-infected patient assessed as pyrexia administered as tid; assay type: organism-based; details: in vivo, po
Homo sapiens [23] = test: Toxicity in VZV-infected 1 to <2 years aged pediatric patient assessed as incidence of abdominal pain at 40.8 mg/kg, po tid; assay type: organism-based, Abdomen; set-up: dose 40.8 mg/kg, route oral; details: in vivo
Homo sapiens [24] = test: Toxicity in VZV-infected 2 to <6 years aged pediatric patient assessed as incidence of abdominal pain at 40.6 mg/kg, po tid; assay type: organism-based, Abdomen; set-up: dose 40.6 mg/kg, route oral; details: in vivo
Homo sapiens [25] = test: Toxicity in VZV-infected 6 to <=12 years aged pediatric patient assessed as incidence of abdominal pain at 35.5 mg/kg, po tid; assay type: organism-based, Abdomen; set-up: dose 35.5 mg/kg, route oral; details: in vivo
Homo sapiens [26] = test: Toxicity in orally dosed VZV-infected patient assessed as incidence of abdominal pain administered as tid; assay type: organism-based, Abdomen; details: in vivo, po
Homo sapiens [27] = test: Toxicity in VZV-infected 1 to <2 years aged pediatric patient assessed as incidence of nausea at 40.8 mg/kg, po tid; assay type: organism-based; set-up: dose 40.8 mg/kg, route oral; details: in vivo
Homo sapiens [28] = test: Toxicity in VZV-infected 2 to <6 years aged pediatric patient assessed as incidence of nausea at 40.6 mg/kg, po tid; assay type: organism-based; set-up: dose 40.6 mg/kg, route oral; details: in vivo
Homo sapiens [29] = test: Toxicity in VZV-infected 6 to <=12 years aged pediatric patient assessed as incidence of nausea at 35.5 mg/kg, po tid; assay type: organism-based; set-up: dose 35.5 mg/kg, route oral; details: in vivo
Homo sapiens [30] = test: Toxicity in orally dosed VZV-infected patient assessed as incidence of nausea administered as tid; assay type: organism-based; details: in vivo, po
Homo sapiens [31] = test: Toxicity in VZV-infected 1 to <2 years aged pediatric patient assessed as incidence of cellulitis at 40.8 mg/kg, po tid; assay type: organism-based; set-up: dose 40.8 mg/kg, route oral; details: in vivo
Homo sapiens [32] = test: Toxicity in VZV-infected 2 to <6 years aged pediatric patient assessed as incidence of cellulitis at 40.6 mg/kg, po tid; assay type: organism-based; set-up: dose 40.6 mg/kg, route oral; details: in vivo
Homo sapiens [33] = test: Toxicity in VZV-infected 6 to <=12 years aged pediatric patient assessed as incidence of cellulitis at 35.5 mg/kg, po tid; assay type: organism-based; set-up: dose 35.5 mg/kg, route oral; details: in vivo
Homo sapiens [34] = test: Toxicity in orally dosed VZV-infected patient assessed as incidence of cellulitis administered as tid; assay type: organism-based; details: in vivo, po
Homo sapiens [35] = test: Toxicity in VZV-infected 1 to <2 years aged pediatric patient assessed as incidence of headache at 40.8 mg/kg, po tid; assay type: organism-based; set-up: dose 40.8 mg/kg, route oral; details: in vivo
Homo sapiens [36] = test: Toxicity in VZV-infected 2 to <6 years aged pediatric patient assessed as incidence of headache at 40.6 mg/kg, po tid; assay type: organism-based; set-up: dose 40.6 mg/kg, route oral; details: in vivo
Homo sapiens [37] = test: Toxicity in VZV-infected 6 to <=12 years aged pediatric patient assessed as incidence of headache at 35.5 mg/kg, po tid; assay type: organism-based; set-up: dose 35.5 mg/kg, route oral; details: in vivo
Homo sapiens [38] = test: Toxicity in orally dosed VZV-infected patient assessed as incidence of headache administered as tid; assay type: organism-based; details: in vivo, po
Homo sapiens [39] = test: Toxicity in VZV-infected 1 to <2 years aged pediatric patient assessed as incidence of pruritus at 40.8 mg/kg, po tid; assay type: organism-based; set-up: dose 40.8 mg/kg, route oral; details: in vivo
Homo sapiens [40] = test: Toxicity in VZV-infected 2 to <6 years aged pediatric patient assessed as incidence of pruritus at 40.6 mg/kg, po tid; assay type: organism-based; set-up: dose 40.6 mg/kg, route oral; details: in vivo
Homo sapiens [41] = test: Toxicity in VZV-infected 6 to <=12 years aged pediatric patient assessed as incidence of pruritus at 35.5 mg/kg, po tid; assay type: organism-based; set-up: dose 35.5 mg/kg, route oral; details: in vivo
Homo sapiens [42] = test: Toxicity in orally dosed VZV-infected patient assessed as incidence of pruritus administered as tid; assay type: organism-based; details: in vivo, po
[43] = Tmax in 1 to <2 years aged pediatric patient administered as single dose; assay type: ADME, organism-based; details: human, in vivo

- Tmax [43]: 1.08 h
SMILES: Nc1nc2c(ncn2CCC(CO)CO)c(=O)[nH]1 [PENCICLOVIR]
- Activity (Homo sapiens [1]): 5.6%
- Activity (Homo sapiens [2]): 4.3%
- Activity (Homo sapiens [3]): 15.4%
- Activity (Homo sapiens [4]): 0%
- Activity (Homo sapiens [5]): 0%
- Activity (Homo sapiens [6]): 4.3%
- Activity (Homo sapiens [7]): 38.9%
- Activity (Homo sapiens [8]): 52.6%
- Activity (Homo sapiens [9]): 43.8%
- Activity (Homo sapiens [10]): 45.3%
- Activity (Homo sapiens [11]): 11.1%
- Activity (Homo sapiens [12]): 5.3%
- Activity (Homo sapiens [13]): 18.8%
- Activity (Homo sapiens [14]): 11.3%
- Activity (Homo sapiens [15]): 27.8%
- Activity (Homo sapiens [16]): 0%
- Activity (Homo sapiens [17]): 0%
- Activity (Homo sapiens [18]): 9.4%
- Activity (Homo sapiens [19]): 11.1%
- Activity (Homo sapiens [20]): 5.3%
- Activity (Homo sapiens [21]): 6.3%
- Activity (Homo sapiens [22]): 7.5%
- Activity (Homo sapiens [23]): 0%
- Activity (Homo sapiens [24]): 0%
- Activity (Homo sapiens [25]): 12.5%
- Activity (Homo sapiens [26]): 3.8%
- Activity (Homo sapiens [27]): 0%
- Activity (Homo sapiens [28]): 5.3%
- Activity (Homo sapiens [29]): 6.3%
- Activity (Homo sapiens [30]): 3.8%
- Activity (Homo sapiens [31]): 0%
- Activity (Homo sapiens [32]): 5.3%
- Activity (Homo sapiens [33]): 6.3%
- Activity (Homo sapiens [34]): 3.8%
- Activity (Homo sapiens [35]): 0%
- Activity (Homo sapiens [36]): 0%
- Activity (Homo sapiens [37]): 12.5%
- Activity (Homo sapiens [38]): 3.8%
- Activity (Homo sapiens [39]): 5.6%
- Activity (Homo sapiens [40]): 0%
- Activity (Homo sapiens [41]): 6.3%
- Activity (Homo sapiens [42]): 3.8%
